{
  "source": "paper PMC5548701",
  "about": "“Selective targeting of melanoma using N-(2-diethylaminoethyl) 4-[^18F]fluoroethoxy benzamide (4-[^18F]FEBZA): a novel PET imaging probe” (EJNMMI Research, 2017)",
  "key": {"[1]": {"test": "biodistribution in normal mice with no tumor implants", "assay_type": "in vivo, C57BL/6 mice", "details": "1 h", "protocol": "(§1) The biodistribution studies were performed in mice bearing B16F1 (1 h n = 5; 2 h n = 6), C-32 (1 h n = 3; 2 h n = 3), and HT-29 (1 h n = 3; 2 h n = 3) tumor xenografts. The tumor-bearing mice were injected with ~40 μCi of 4-[^18F]FEBZA. A separate group of normal C57BL/6 mice with no tumor implants (1 h n = 3; 2 h n = 3) was also injected with ~40 μCi of 4-[^18F]FEBZA to study the distribution characteristics of 4-[^18F]FEBZA in the absence of tumors. At 1 h and 2 h post-injection, the mice were euthanized, and the tissues of interest were removed, rinsed with PBS, weighed, and counted for radioactivity contents using a γ-counter."}, "B16F1 cells": {"tested_on": "B16F1 cells", "test": "internalization assay (acid wash)", "assay_type": "cell-based, murine", "details": "37 °C", "protocol": "Next, we evaluated the binding characteristics of 4-[^18F]FEBZA to B16F1 cells through internalization experiments. The cells were treated with a low pH buffer to sequester membrane-bound radioactivity (acid wash-releasable) from the internalized (acid wash-resistant) fraction. For this assay, 4-[^18F]FEBZA was added to 12-well plates with each well containing 4 × 10^5 B16F1cells/well (in quadruplicate), and the plates were incubated at 37 °C for 15, 30, 60, 120, and 180 min. After the incubation, the media were removed, each well was washed with ice-cold PBS (2 × 1 mL), and the washes were collected in the tubes. Subsequently, each well was gently treated with 1 mL of an ice-cold mildly acidic medium (sodium acetate buffer, pH 4.5) to remove surface-bound radioactivity, and the rinses were collected in tubes (acidic wash). The adherent cells were then lysed using 500 μL of 10% Triton X-100 in PBS, and the lysate was transferred into tubes. The total radioactivity in each of the lysate, acidic wash, and the PBS wash was measured using a γ-counter."}, "[2]": {"tested_on": "C-32 amelanotic melanoma tumor xenografts", "test": "biodistribution in mice bearing C-32 tumor xenografts", "assay_type": "in vivo, athymic nu/nu mice", "details": "for Adrenals %IA/g tissue (mean ± SD) / Blood %IA/g tissue (mean ± SD) / Bone %IA/g tissue (mean ± SD) / Brain %IA/g tissue (mean ± SD) / Heart %IA/g tissue (mean ± SD) / Kidneys %IA/g tissue (mean ± SD) / Liver %IA/g tissue (mean ± SD) / Lung %IA/g tissue (mean ± SD) / Muscles %IA/g tissue (mean ± SD) / Pancreas %IA/g tissue (mean ± SD) / Sm. Intestine %IA/g tissue (mean ± SD) / Spleen %IA/g tissue (mean ± SD): C-32 tumor mice; for Tumor %IA/g tissue (mean ± SD): C-32 tumor", "protocol": "B16F1 melanoma cells, HT-29 human colorectal adenocarcinoma cells, and C-32 amelanotic melanoma cells were purchased from the American Type Culture Collection (ATCC, Rockville, MD). B16F1 murine melanotic melanoma cells were maintained in Dulbecco’s modified Eagles medium supplemented with 10% fetal calf-serum, 2 mM L-glutamine, and 1 mM pyruvate. HT-29 and C-32 cells were maintained in RPMI supplemented with 10% fetal calf serum and 2 mM L-glutamine. C57BL/6 and athymic nu/nu mice were purchased from Charles River Laboratories (Charles River Laboratories, Boston, MA). All animal studies were performed using an IACUC-approved protocol, and the work was performed under the guidelines established by Wake Forest University. The cells were grown to confluency, harvested, washed with phosphate-buffered saline and then were suspended in a 1:1 mixture of phosphate-buffered saline and Matrigel (BD Life Sciences, San Jose, CA) at a concentration of 5 × 10^6 cells/mL. For subcutaneous tumor xenografts, […] in the right flank with 100 μL of a suspension of B16F1 cells, and female athymic nu/nu mice were injected in the right flank with 100 μL of HT-29 cells or C-32 cells.\nas §1"}, "B16F1 tumor": {"tested_on": "B16F1 tumor", "test": "microPET imaging in mice bearing B16F1 tumor", "assay_type": "in vivo", "protocol": "In vivo imaging of 4-[^18F]FEBZA in mice bearing B16F1 (n = 2) and HT-29 (n = 1) tumor was performed using a P4 microPET™ scanner (Concorde Microsystems, Inc., Knoxville, TN). After administering ~100 μCi of 4-[^18F]FEBZA via tail-vein injection, whole body PET scans were acquired in list mode. The images were reconstructed using filtered back projection with attenuation correction. Regions Of Interest (ROIs) were drawn on select organs using the summed image from the entire scan acquisition session, and the data were analyzed using ASIPro software (Siemens Preclinical Solutions, Knoxville, TN). The time activity curves (TACs) were generated from the list mode data reconstructed into multiple 5-min frames."}},
  "data": [
    {"smiles": "CCN(CC)CCNC(=O)c1ccc(OCC[18F])cc1", "note": "[4-[^18F]FEBZA, N-(2-diethylaminoethyl) 4-[^18F]fluoroethoxybenzamide]", "values": [
      {"measurement": "bone uptake", "setting": "[1]; mice with no tumor", "value": "3.23 ± 0.24", "unit": "%IA/g"},
      {"measurement": "blood uptake", "setting": "[1]; mice without implanted tumor", "value": "2.81 ± 0.31", "unit": "%IA/g"},
      {"measurement": "brain uptake", "setting": "[1]; mice without implanted tumor", "value": "2.46 ± 0.41", "unit": "%IA/g"},
      {"measurement": "liver uptake", "setting": "[1]; mice without implanted tumor", "value": "4.11 ± 0.63", "unit": "%IA/g"},
      {"measurement": "lungs uptake", "setting": "[1]; mice without implanted tumor", "value": "2.52 ± 0.47", "unit": "%IA/g"},
      {"measurement": "muscle uptake", "setting": "[1]; mice without implanted tumor", "value": "1.10 ± 0.13", "unit": "%IA/g"},
      {"measurement": "internalized fraction of cell-associated radioactivity", "setting": "B16F1 cells", "value": "Majority of the cell-associated radioactivity is internalized"},
      {"measurement": "time at which internalized fraction reached plateau", "setting": "B16F1 cells", "value": "about 120 min"},
      {"measurement": "cell surface bound fraction", "setting": "B16F1 cells; all time points (15-180 min)", "value": "< 1", "unit": "%"},
      {"measurement": "tumor-to-muscle ratio", "setting": "[2]; C-32 mice group, 2 h", "value": "2.43 ± 0.14"},
      {"measurement": "Adrenals %IA/g tissue (mean ± SD)", "setting": "[2]; 1 h post-injection", "value": "1.26 ± 0.39", "unit": "%IA/g tissue"},
      {"measurement": "Blood %IA/g tissue (mean ± SD)", "setting": "[2]; 1 h post-injection", "value": "3.22 ± 0.64", "unit": "%IA/g tissue"},
      {"measurement": "Bone %IA/g tissue (mean ± SD)", "setting": "[2]; 1 h post-injection", "value": "3.47 ± 0.78", "unit": "%IA/g tissue"},
      {"measurement": "Brain %IA/g tissue (mean ± SD)", "setting": "[2]; 1 h post-injection", "value": "1.87 ± 0.21", "unit": "%IA/g tissue"},
      {"measurement": "Heart %IA/g tissue (mean ± SD)", "setting": "[2]; 1 h post-injection", "value": "2.52 ± 0.15", "unit": "%IA/g tissue"},
      {"measurement": "Kidneys %IA/g tissue (mean ± SD)", "setting": "[2]; 1 h post-injection", "value": "2.85 ± 0.37", "unit": "%IA/g tissue"},
      {"measurement": "Liver %IA/g tissue (mean ± SD)", "setting": "[2]; 1 h post-injection", "value": "3.11 ± 0.49", "unit": "%IA/g tissue"},
      {"measurement": "Lung %IA/g tissue (mean ± SD)", "setting": "[2]; 1 h post-injection", "value": "1.94 ± 0.67", "unit": "%IA/g tissue"},
      {"measurement": "Muscles %IA/g tissue (mean ± SD)", "setting": "[2]; 1 h post-injection", "value": "2.35 ± 1.06", "unit": "%IA/g tissue"},
      {"measurement": "Pancreas %IA/g tissue (mean ± SD)", "setting": "[2]; 1 h post-injection", "value": "2.49 ± 0.42", "unit": "%IA/g tissue"},
      {"measurement": "Sm. Intestine %IA/g tissue (mean ± SD)", "setting": "[2]; 1 h post-injection", "value": "2.23 ± 0.21", "unit": "%IA/g tissue"},
      {"measurement": "Spleen %IA/g tissue (mean ± SD)", "setting": "[2]; 1 h post-injection", "value": "1.96 ± 0.38", "unit": "%IA/g tissue"},
      {"measurement": "Adrenals %IA/g tissue (mean ± SD)", "setting": "[2]; 2 h post-injection", "value": "0.77 ± 0.18", "unit": "%IA/g tissue"},
      {"measurement": "Blood %IA/g tissue (mean ± SD)", "setting": "[2]; 2 h post-injection", "value": "2.40 ± 0.30", "unit": "%IA/g tissue"},
      {"measurement": "Bone %IA/g tissue (mean ± SD)", "setting": "[2]; 2 h post-injection", "value": "5.09 ± 0.72", "unit": "%IA/g tissue"},
      {"measurement": "Brain %IA/g tissue (mean ± SD)", "setting": "[2]; 2 h post-injection", "value": "1.36 ± 0.17", "unit": "%IA/g tissue"},
      {"measurement": "Heart %IA/g tissue (mean ± SD)", "setting": "[2]; 2 h post-injection", "value": "1.75 ± 0.35", "unit": "%IA/g tissue"},
      {"measurement": "Kidneys %IA/g tissue (mean ± SD)", "setting": "[2]; 2 h post-injection", "value": "1.84 ± 0.12", "unit": "%IA/g tissue"},
      {"measurement": "Liver %IA/g tissue (mean ± SD)", "setting": "[2]; 2 h post-injection", "value": "1.99 ± 0.12", "unit": "%IA/g tissue"},
      {"measurement": "Lung %IA/g tissue (mean ± SD)", "setting": "[2]; 2 h post-injection", "value": "1.33 ± 0.35", "unit": "%IA/g tissue"},
      {"measurement": "Muscles %IA/g tissue (mean ± SD)", "setting": "[2]; 2 h post-injection", "value": "1.05 ± 0.14", "unit": "%IA/g tissue"},
      {"measurement": "Pancreas %IA/g tissue (mean ± SD)", "setting": "[2]; 2 h post-injection", "value": "1.40 ± 0.10", "unit": "%IA/g tissue"},
      {"measurement": "Sm. Intestine %IA/g tissue (mean ± SD)", "setting": "[2]; 2 h post-injection", "value": "1.33 ± 0.06", "unit": "%IA/g tissue"},
      {"measurement": "Spleen %IA/g tissue (mean ± SD)", "setting": "[2]; 2 h post-injection", "value": "1.22 ± 0.08", "unit": "%IA/g tissue"},
      {"measurement": "Tumor %IA/g tissue (mean ± SD)", "setting": "[2]; 1 h post-injection", "value": "3.91 ± 0.23", "unit": "%IA/g tissue"},
      {"measurement": "Tumor %IA/g tissue (mean ± SD)", "setting": "[2]; 2 h post-injection", "value": "2.53 ± 0.19", "unit": "%IA/g tissue"},
      {"measurement": "time post-injection by which tumor is clearly visible on microPET images", "setting": "B16F1 tumor; B16F1 melanoma tumor", "value": "≤ 10", "unit": "min"},
      {"measurement": "standardized uptake value (SUV) of tumor from microPET images", "setting": "B16F1 tumor; B16F1 tumor", "value": "1.53 ± 1.01"},
      {"measurement": "radioactivity level in B16F1 tumor from microPET time activity curve", "setting": "B16F1 tumor; by 47 min", "value": "over 3.5 %IA/g tumor"}
    ]}
  ]
}
